{"source": "patent US20170224692A1", "about": "“Combination Therapy” (Novartis AG, priority 2014, published 2017)", "format_in_all_cases": "cell-based", "key": {"YD-38 cells": {"test_system": "YD-38 cells", "assay": "3 day CellTiter-Glo cell proliferation assay / dose matrix combination, YD-38", "protocol": "(§1) YD-38, CAL-33 and CCK-81 cells were cultured at 37° C. in a 5% CO2 incubator using the ATCC media (YD-38, RPMI-1640; CAL-33, DMEM; CCK-81, EMEM) supplemented with 10% FBS (Thermo scientific, SH30071.03). […] L-glutamine (Invitrogen, #25030-081) was also supplemented for CAL-33 media. Cells were passaged twice a week using TryPLE Express (Invitrogen, #12604-013).\n(§2) Cell viability was determined by measuring cellular ATP content using the CellTiter-Glo®(CTG) luminescent cell viability assay (Promega #G7573) according to the manufacturer's protocol. Briefly, various number of cells (6000 for CAL-33, 4200 for YD-38 and 7000 for CCK-81) were seeded in 80 μl growth media per well in clear-bottom 96-well black plates (Costar, #3904) in triplicates. Cells were allowed to attach overnight prior to 72 hours of treatment with indicated compounds (serially-diluted where applicable) and/or 75 ng/ml HGF in a volume of 100 ul for HGF rescue experiment (+20 μl compound or HGF) or 140 ul for Chalice combination experiment (+20 μl compound A+20 μl compound B+20 ul media or HGF). At the end of the drug treatment, 100 ul CTG reagent was added to each well to lyse the cells, and luminescence signals were recorded in the Envision plate reader (Perkin Elmer).\n(§3) In all combination assays, compounds were applied simultaneously. […] INC280 was subjected to a 7 doses 3× serial dilution with the highest dose at 1.5 μM and the lowest dose at about […]. The synergistic interaction was analyzed using Chalice software (CombinatoRx, Cambridge Mass.). Synergy was calculated by comparing a combination's response to those of its single agents, against the drug-with-itself dose-additive reference model and reported as Synergy Score (Lehar et al., 2009).\n(§4) YD-38, CAL-33 and CCK-81 cells were treated in 96-well format for 3 days with HGF alone, Panitumumab alone, Panitumumab as a singal agent and Panitumumab with INC280 in the present or absent of HGF. (FIGS. 6 and 7). Cell viability was measured using the CellTiter-Glo assay. % viability was plotted as bar graphs with mean values and standard deviations from triplicates. […] Each data point represents averaged data from 3 wells +standard deviation, and the color spectrum also represents the level of the inhibition."}, "[1]": {"test_system": "YD-38, CAL-33 and CCK-81 cells", "assay": "3 day CellTiter-Glo proliferation / dose matrix combination, statements over all three cell lines", "protocol": "Cell viability was determined by measuring cellular ATP content using the CellTiter-Glo®(CTG) luminescent cell viability assay (Promega #G7573) according to the manufacturer's protocol. Briefly, various number of cells (6000 for CAL-33, 4200 for YD-38 and 7000 for CCK-81) were seeded in 80 μl growth media per well in clear-bottom 96-well black plates (Costar, #3904) in triplicates. […] At the end of the drug treatment, 100 ul CTG reagent was added to each well to lyse the cells, and luminescence signals were recorded in the Envision plate reader (Perkin Elmer).\nIn all combination assays, compounds were applied simultaneously. […] The synergistic interaction was analyzed using Chalice software (CombinatoRx, Cambridge Mass.). Synergy was calculated by comparing a combination's response to those of its single agents, against the drug-with-itself dose-additive reference model and reported as Synergy Score (Lehar et al., 2009).\nYD-38, CAL-33 and CCK-81 cells were treated in 96-well format for 3 days with HGF alone, Panitumumab alone, Panitumumab as a singal agent and Panitumumab with INC280 in the present or absent of HGF. […] Cell viability was measured using the CellTiter-Glo assay. % viability was plotted as bar graphs with mean values and standard deviations from triplicates. […]"}, "CCK-81 cells": {"test_system": "CCK-81 cells", "assay": "3 day CellTiter-Glo cell proliferation assay / dose matrix combination, CCK-81", "protocol": "as §1, §2, §3, §4"}, "CAL-33 cells": {"test_system": "CAL-33 cells", "assay": "3 day CellTiter-Glo cell proliferation assay / dose matrix combination, CAL-33", "protocol": "as §1, §2, §3, §4"}, "[2]": {"conditions": "INC280 single agent, dose matrix"}, "[3]": {"conditions": "co-treatment with 500 nM INC280, 100 nM Cetuximab, 75 ng/ml HGF"}, "[4]": {"conditions": "addition of 75 ng/ml HGF together with antibody"}}, "note": "Several values for one entry are separate records, joined by “and”; a condition that tells them apart may be missing. Equal values may be shown once."}
{"compound": "CNC(=O)c1ccc(-c2cnc3ncc(Cc4ccc5ncccc5c4)n3n2)cc1F", "note": "[INC280, 2-fluoro-N-methyl-4-[(7-quinolin-6-yl-methyl)-imidazo[1,2-b]triazin-2-yl]benzamide]", "values": [{"measurement": "anti-proliferation effect, single agent", "setting": "YD-38 cells; [2]", "result": "no anti-proliferation effect"}, {"measurement": "block of the HGF rescue of Cetuximab effect", "setting": "YD-38 cells; [3]", "result": "completely blocked"}, {"measurement": "INC280 concentration that re-sensitized HGF-treated cells to Cetuximab", "setting": "YD-38 cells; presence of HGF, dose matrix", "result": 18, "unit": "nM"}, {"measurement": "anti-proliferation effect, single agent", "setting": "[1]; INC280 single agent, regardless of HGF addition", "result": "little or no anti-proliferation effect"}, {"measurement": "INC280 concentration that re-sensitized cells to Cetuximab", "setting": "[1]; presence of HGF", "result": 18, "unit": "nM"}, {"measurement": "inhibition at 1.5 µM", "setting": "CCK-81 cells; INC280 at 1.5 μM, presence of HGF, read-out: growth inhibition, single agent", "result": "~20", "unit": "%"}, {"measurement": "block of the HGF rescue of Cetuximab effect", "setting": "CCK-81 cells; [3]", "result": "fully blocked"}, {"measurement": "INC280 concentration that re-sensitized HGF-treated cells to Cetuximab", "setting": "CCK-81 cells; presence of HGF, dose matrix", "result": 18, "unit": "nM"}, {"measurement": "anti-proliferation effect, single agent", "setting": "CAL-33 cells; [2]", "result": "no anti-proliferation effect"}, {"measurement": "block of the HGF rescue of Cetuximab effect", "setting": "CAL-33 cells; [3]", "result": "completely blocked"}, {"measurement": "INC280 concentration that re-sensitized HGF-treated cells to Cetuximab", "setting": "CAL-33 cells; presence of HGF, dose matrix", "result": 18, "unit": "nM"}]}
{"compound": "Panitumumab: fully human monoclonal antibody specific to the epidermal growth factor receptor [reference compound]", "values": [{"measurement": "HGF rescue of the anti-proliferation effect of the EGFR antibody", "setting": "YD-38 cells; [4]", "result": "rescued"}, {"measurement": "HGF rescue of the anti-proliferation effect of the EGFR antibody", "setting": "CCK-81 cells; [4]", "result": "rescued"}, {"measurement": "HGF rescue of the anti-proliferation effect of the EGFR antibody", "setting": "CAL-33 cells; [4]", "result": "rescued"}]}
{"compound": "HGF: Recombinant HGF (R&D Systems, 294-HG-005/CF), ligand activating MET [reference compound]", "values": [{"measurement": "growth-stimulating effect of HGF alone", "setting": "YD-38 cells; 75 ng/ml HGF alone", "result": "no growth-stimulating effect"}, {"measurement": "growth-stimulating effect of HGF alone", "setting": "CCK-81 cells; 75 ng/ml HGF alone", "result": "~19% and ~20%"}, {"measurement": "growth-promoting effect by HGF alone", "setting": "CAL-33 cells; 75 ng/ml HGF alone", "result": "~16", "unit": "%"}]}
